Measurements published in patent publication US20130281397A1, “TREATMENT OF DISEASES BY EPIGENETIC REGULATION” (RVX Therapeutics Inc., priority 2012, published 2013).

Columns and labels:
Brd4 bromodomain 1 = molecular target: T1, Brd4 bromodomain 1 (Homo sapiens, UniProt O60885); assay: Inhibition of binding of tetra-acetylated histone H4 and Brd4 bromodomain 1 by TR-FRET; settings: His-tagged bromodomain 200 nM, biotinylated tetra-acetylated histone H4 peptide 25-50 nM, 2 hours at room temperature
T1 construct: made in house; host or cells: E. coli BL21(DE3)

Question: What does the source list for `COc1cc(OC)c2c(=O)[nH]c(-c3ccc(O)c(OC)c3)nc2c1` [Example 26, 2-(4-hydroxy-3-methoxyphenyl)-5,7-dimethoxyquinazolin-4(3H)-one]?
Answer: FRET activity (<50 uM) (Brd4 bromodomain 1): Active; melting point: 294 to 296 °C

Question: With `COc1cc(OC)c2c(=O)[nH]c(-c3ccc(O)c(Cl)c3)nc2c1` [Example 27, 2-(3-chloro-4-hydroxyphenyl)-5,7-dimethoxyquinazolin-4(3H)-one] as the molecule, how does the “FRET activity (<50 uM)” value (Brd4 bromodomain 1) read?
Answer: Its value is “Active”.

Question: What about the melting point of the same molecule?
Answer: Its melting point is 279 to 281 °C.

Question: What does the source list for `Cc1cc(-c2nc3ccccc3c(=O)[nH]2)cc(C)c1OCCO` [Example 30, 2-(4-(2-hydroxyethoxy)-3,5-dimethylphenyl)quinazolin-4(3H)-one]?
Answer: FRET activity (<50 uM) (Brd4 bromodomain 1): Inactive; melting point: 260 to 261 °C

Question: What does the source list for `O=c1[nH]c(-c2ccc3c(c2)OCCO3)nc2ccccc12` [Example 31, 2-(2,3-dihydrobenzo[b][1,4]dioxin-6-yl)quinazolin-4(3H)-one]?
Answer: FRET activity (<50 uM) (Brd4 bromodomain 1): Inactive; melting point: 267 to 268 °C (dec.)

Question: What does the source list for `COc1cc(OC)c2c(=O)[nH]c(-c3ccc(N(C)C)c4ccccc34)nc2c1` [Example 32, 2-(4-(dimethylamino)naphthalen-1-yl)-5,7-dimethoxyquinazolin-4(3H)-one]?
Answer: FRET activity (<50 uM) (Brd4 bromodomain 1): Inactive; melting point: 269 to 271 °C

Question: What does the source list for `COc1cc(OC)c2c(=O)[nH]c(-c3ccc(OCC(N)=O)cc3)nc2c1` [Example 33, 2-(4-(5,7-dimethoxy-4-oxo-3,4-dihydroquinazolin-2-yl)phenoxy)acetamide]?
Answer: FRET activity (<50 uM) (Brd4 bromodomain 1): Active; melting point: 309 to 311 °C

Question: Which “FRET activity (<50 uM)” value (Brd4 bromodomain 1) does the source give for `O=C(O)COc1ccc(-c2nc3ccccc3c(=O)[nH]2)cc1` [Example 34, 2-(4-(4-oxo-3,4-dihydroquinazolin-2-yl)phenoxy)acetic acid] here?
Answer: Its value is “Inactive”.

Question: What about the melting point of the same molecule?
Answer: Its melting point is 285 to 287 °C.

Question: Which “FRET activity (<50 uM)” value (Brd4 bromodomain 1) does the source give for `CN(C)c1ccc(-c2nc3ccccc3c(=O)[nH]2)c2ccccc12` [Example 35, 2-(4-(dimethylamino)naphthalen-1-yl)quinazolin-4(3H)-one] here?
Answer: The value was “Inactive”.

Question: What about the melting point of the same molecule?
Answer: Its melting point is 224 to 226 °C.

Question: With `NC(=O)COc1ccc(-c2nc3ccccc3c(=O)[nH]2)cc1` [Example 36, 2-(4-(4-oxo-3,4-dihydroquinazolin-2-yl)phenoxy)acetamide] as the molecule, how does the “FRET activity (<50 uM)” value (Brd4 bromodomain 1) read?
Answer: Its value is “Inactive”.

Question: What about the melting point of the same molecule?
Answer: Its melting point is 277.5 to 278.5 °C.

Question: Which “FRET activity (<50 uM)” value (Brd4 bromodomain 1) does the source give for `COc1cc(OC)c2c(=O)[nH]c(-c3ccc4c(c3)OCCO4)nc2c1` [Example 37, 2-(2,3-dihydrobenzo[b][1,4]dioxin-6-yl)-5,7-dimethoxyquinazolin-4(3H)-one] here?
Answer: Its value is “Active”.

Question: What about the melting point of the same molecule?
Answer: The melting point was 307.5 to 309.6 °C.

Question: For `O=c1[nH]c(-c2ccc(N(CCO)CCO)cc2)nc2ccccc12` [Example 40, 2-(4-(bis(2-hydroxyethyl)amino)phenyl)quinazolin-4(3H)-one], which “FRET activity (<50 uM)” value (Brd4 bromodomain 1) is on record?
Answer: Its value is “Inactive”.

Question: And the melting point?
Answer: Its melting point is 228 to 230 °C.

Question: With `COc1cc(OC)c2c(=O)[nH]c(-c3ccc(N(CCO)CCO)cc3)nc2c1` [Example 41, 2-(4-(bis(2-hydroxyethyl)amino)phenyl)-5,7-dimethoxyquinazolin-4(3H)-one] as the molecule, how does the “FRET activity (<50 uM)” value (Brd4 bromodomain 1) read?
Answer: The value was “Active”.

Question: And the melting point?
Answer: Its melting point is 249 to 251 °C.

Question: For `COc1cc2nc(-c3ccc4c(c3)OCCO4)[nH]c(=O)c2cc1OC` [Example 43, 2-(2,3-dihydrobenzo[b][1,4]dioxin-6-yl)-6,7-dimethoxyquinazolin-4(3H)-one], which “FRET activity (<50 uM)” value (Brd4 bromodomain 1) is on record?
Answer: The value was “Inactive”.

Question: What about the melting point of the same molecule?
Answer: Its melting point is 316.4 to 318.2 °C.

Question: With `COc1cc(OC)c2c(=O)[nH]c(-c3cc(C)c(OCCN4CCOCC4)c(C)c3)cc2n1` [Example 45, 7-(3,5-dimethyl-4-(2-morpholinoethoxy)phenyl)-2,4-dimethoxy-1,6-naphthyridin-5(6H)-one] as the molecule, how does the “FRET activity (<50 uM)” value (Brd4 bromodomain 1) read?
Answer: The value was “Active”.

Question: And the melting point?
Answer: Its melting point is 212.5 to 212.9 °C.

Question: With `COc1cc2nc(-c3cc(C)c(O)c(C)c3)[nH]c(=O)c2cc1OC` [Example 47, 2-(4-hydroxy-3,5-dimethylphenyl)-6,7-dimethoxyquinazolin-4(3H)-one] as the molecule, how does the “FRET activity (<50 uM)” value (Brd4 bromodomain 1) read?
Answer: Its value is “Active”.

Question: What about the melting point of the same molecule?
Answer: Its melting point is greater than 300 °C.

Question: Which results are given for `COc1cc(OC)c2c(=O)[nH]c(-c3ccc(CCC(=O)O)cc3)nc2c1` [Example 48, 3-(4-(5,7-dimethoxy-4-oxo-3,4-dihydroquinazolin-2-yl)phenyl)propanoic acid]?
Answer: FRET activity (<50 uM) (Brd4 bromodomain 1): Active; melting point: 250.6 to 251.1 °C

Question: Which “FRET activity (<50 uM)” value (Brd4 bromodomain 1) does the source give for `CC(=O)Nc1ccc2nc(-c3cc(C)c(O)c(C)c3)[nH]c(=O)c2c1` [Example 49, N-(2-(4-hydroxy-3,5-dimethylphenyl)-4-oxo-3,4-dihydroquinazolin-6-yl)acetamide] here?
Answer: The value was “Inactive”.

Question: And the melting point?
Answer: The melting point was 336.5 °C (dec.).

Question: Which results are given for `COc1cc2nc(-c3cc(C)c(OCC(N)=O)c(C)c3)[nH]c(=O)c2cc1OC` [Example 50, 2-(4-(6,7-dimethoxy-4-oxo-3,4-dihydroquinazolin-2-yl)-2,6-dimethylphenoxy)acetamide]?
Answer: FRET activity (<50 uM) (Brd4 bromodomain 1): Inactive; melting point: 354 to 356 °C

Question: Which “FRET activity (<50 uM)” value (Brd4 bromodomain 1) does the source give for `COc1cc(OC)c2c(=O)[nH]c(-c3ccc(OCCO)c(Cl)c3)nc2c1` [Example 51, 2-(3-chloro-4-(2-hydroxyethoxy)phenyl)-5,7-dimethoxyquinazolin-4(3H)-one] here?
Answer: Its value is “Inactive”.

Question: What about the melting point of the same molecule?
Answer: The melting point was 287 to 288 °C (dec.).

Question: For `COc1cc2nc(-c3cc(C)c(OCCO)c(C)c3)[nH]c(=O)c2cc1OC` [Example 53, 2-(4-(2-hydroxyethoxy)-3,5-dimethylphenyl)-6,7-dimethoxyquinazolin-4(3H)-one], which “FRET activity (<50 uM)” value (Brd4 bromodomain 1) is on record?
Answer: The value was “Inactive”.

Question: What about the melting point of the same molecule?
Answer: Its melting point is greater than 300 °C.

Question: Which results are given for `COc1cc(OC)c2c(=O)[nH]c(-c3cc(C)c(NC(=O)CO)c(C)c3)nc2c1` [Example 55, N-(4-(5,7-dimethoxy-4-oxo-3,4-dihydroquinazolin-2-yl)-2,6-dimethylphenyl)-2-hydroxyacetamide]?
Answer: FRET activity (<50 uM) (Brd4 bromodomain 1): Active; melting point: 190 to 192 °C

Question: With `COc1cc(OC)c2c(=O)[nH]c(-c3cc(C)c(OC)c(C)c3)cc2n1` [Example 58, 2,4-dimethoxy-7-(4-methoxy-3,5-dimethylphenyl)-1,6-naphthyridin-5(6H)-one] as the molecule, how does the “FRET activity (<50 uM)” value (Brd4 bromodomain 1) read?
Answer: The value was “Active”.

Question: What about the melting point of the same molecule?
Answer: The melting point was 262 to 263 °C (dec.).

Question: What does the source list for `COc1cc(OC)c2c(=O)[nH]c(-c3ccc(NC(=O)CO)cc3)nc2c1` [Example 60, N-(4-(5,7-dimethoxy-4-oxo-3,4-dihydroquinazolin-2-yl)phenyl)-2-hydroxyacetamide]?
Answer: FRET activity (<50 uM) (Brd4 bromodomain 1): Inactive; melting point: 318 to 319 °C

Question: With `COc1cc(OC)c2c(=O)[nH]c(-c3cc(C)c(O)c(C)c3)nc2n1` [Example 63, 2-(4-hydroxy-3,5-dimethylphenyl)-5,7-dimethoxypyrido[2,3-d]pyrimidin-4(3H)-one] as the molecule, how does the “FRET activity (<50 uM)” value (Brd4 bromodomain 1) read?
Answer: Its value is “Active”.

Question: And the melting point?
Answer: Its melting point is 297 to 299 °C.

Question: What does the source list for `COc1cc(OC)c2c(=O)[nH]c(-c3ccc(OC)c(CN4CCOCC4)c3)nc2c1` [Example 64, 5,7-dimethoxy-2-(4-methoxy-3-(morpholinomethyl)phenyl)quinazolin-4(3H)-one]?
Answer: FRET activity (<50 uM) (Brd4 bromodomain 1): Active; melting point: 282.7 to 284.5 °C

Question: Which results are given for `COc1cc(OC)c2c(=O)[nH]c(-c3cc(C)c(OCCO)c(C)c3)nc2n1` [Example 65, 2-(4-(2-hydroxyethoxy)-3,5-dimethylphenyl)-5,7-dimethoxypyrido[2,3-d]pyrimidin-4(3H)-one]?
Answer: FRET activity (<50 uM) (Brd4 bromodomain 1): Active; melting point: 255 to 256 °C

Question: For `COc1cc(OC)c2c(=O)nc(-c3cc(C)c(O)c(C)c3)n(C)c2c1` [Example 66, 2-(4-hydroxy-3,5-dimethylphenyl)-5,7-dimethoxy-1-methylquinazolin-4(1H)-one], which “FRET activity (<50 uM)” value (Brd4 bromodomain 1) is on record?
Answer: The value was “Active”.

Question: What about the melting point of the same molecule?
Answer: Its melting point is 188.5 to 189.1 °C.

Question: For `CC(=O)Nc1ccc2nc(-c3cc(C)c(OCCO)c(C)c3)[nH]c(=O)c2c1` [Example 68, N-(2-(4-(2-hydroxyethoxy)-3,5-dimethylphenyl)-4-oxo-3,4-dihydroquinazolin-6-yl)acetamide], which “FRET activity (<50 uM)” value (Brd4 bromodomain 1) is on record?
Answer: The value was “Inactive”.

Question: What about the melting point of the same molecule?
Answer: Its melting point is greater than 300 °C.

Question: What does the source list for `Cc1cc(-c2cc3nc(OC(C)C)cc(OC(C)C)c3c(=O)[nH]2)cc(C)c1O` [Example 69, 7-(4-hydroxy-3,5-dimethylphenyl)-2,4-diisopropoxy-1,6-naphthyridin-5(6H)-one]?
Answer: FRET activity (<50 uM) (Brd4 bromodomain 1): Active; melting point: 206 to 208 °C

Question: Which results are given for `COc1cc(OC)c2c(=O)[nH]c(-c3ccc(O)c(CCO)c3)nc2c1` [Example 70, 2-(4-hydroxy-3-(2-hydroxyethyl)phenyl)-5,7-dimethoxyquinazolin-4(3H)-one]?
Answer: FRET activity (<50 uM) (Brd4 bromodomain 1): Active; melting point: 249 to 250.3 °C

Question: Which “FRET activity (<50 uM)” value (Brd4 bromodomain 1) does the source give for `Cc1cc(C)c2c(=O)[nH]c(-c3cc(C)c(OCCO)c(C)c3)nc2c1` [Example 71, 2-(4-(2-hydroxyethoxy)-3,5-dimethylphenyl)-5,7-dimethylquinazolin-4(3H)-one] here?
Answer: Its value is “Inactive”.

Question: What about the melting point of the same molecule?
Answer: The melting point was 259.6 to 261.2 °C.

Question: With `COc1cc(OC)c2c(=O)[nH]c(-c3ccc(N(CCO)CCO)cc3)nc2n1` [Example 72, 2-(4-(bis(2-hydroxyethyl)amino)phenyl)-5,7-dimethoxy-pyrido[2,3-d]pyrimidin-4(3H)one] as the molecule, how does the “FRET activity (<50 uM)” value (Brd4 bromodomain 1) read?
Answer: The value was “Active”.

Question: What about the melting point of the same molecule?
Answer: The melting point was 277 to 279 °C.

Question: Which “FRET activity (<50 uM)” value (Brd4 bromodomain 1) does the source give for `COCCOc1c(C)cc(-c2nc3cc(OC)cc(OC)c3c(=O)[nH]2)cc1C` [Example 73, 5,7-dimethoxy-2-(4-(2-methoxyethoxy)-3,5-dimethylphenyl)quinazolin-4(3H)-one] here?
Answer: Its value is “Active”.

Question: What about the melting point of the same molecule?
Answer: The melting point was 201 to 202 °C.

Question: Which results are given for `Cc1cc(-c2nc3cc(Cl)cc(Cl)c3c(=O)[nH]2)cc(C)c1OCCO` [Example 74, 5,7-dichloro-2-(4-(2-hydroxyethoxy)-3,5-dimethylphenyl)quinazolin-4(3H)-one]?
Answer: FRET activity (<50 uM) (Brd4 bromodomain 1): Active; melting point: 260.8 to 262.6 °C

Question: Which results are given for `COc1cc(OC)c2c(=O)[nH]c(-c3ccc(OCC(=O)O)c(OC)c3)nc2c1` [Example 97, 2-(4-(5,7-dimethoxy-4-oxo-3,4-dihydroquinazolin-2-yl)-2-methoxyphenoxy)acetic acid]?
Answer: FRET activity (<50 uM) (Brd4 bromodomain 1): Active; melting point: 275 to 277 °C

Question: Which results are given for `COc1cc(O)c2c(=O)[nH]c(-c3cc(C)c(O)c(C)c3)nc2c1` [Example 98, 5-hydroxy-2-(4-hydroxy-3,5-dimethylphenyl)-7-methoxyquinazolin-4(3H)-one]?
Answer: FRET activity (<50 uM) (Brd4 bromodomain 1): Inactive; melting point: 291.3 to 293 °C
